Laboratory results published in patent US8586579B2, “Anellated pyridine compounds” (Hoffmann-La Roche Inc., priority 2010, dated 2013).
Read-outs that look alike come from different tables or passages of the source.

What was measured:
human 5-HT2A receptor = human 5-HT2A receptor (Homo sapiens (Human), UniProt P28223); test: Radioligand binding assay, [3H]-ketanserin, human 5-HT2A receptor
Procedure, shortened: (§1)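 Incubation was 1 h at RT, using 1.1 nM [3H]-ketanserin at 5-HT2A or 0.5 nM [3H]-spiperone at D3, on membranes of transiently transfected HEK293 EBNA cells. Nonspecific binding was set with 10 μM unlabelled spiperone.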

human D2 receptor = human D2 receptor (Homo sapiens (Human), UniProt P14416); test: Radioligand binding assay, [3H]-spiperone, human D2 receptor; conditions: membranes of HEK293 EBNA cells expressing human D2; 0.7 nM [3H]-spiperone
Procedure, shortened: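 Competition binding used ~0.7 nM [3H]-spiperone, 1 h at room temperature, pH 7.4 Tris/salt buffer, on transiently transfected HEK293 EBNA membranes bearing human D2.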

human D3 receptor = human D3 receptor (Homo sapiens (Human), UniProt P35462); test: Radioligand binding assay, [3H]-spiperone, human D3 receptor; conditions: membranes of HEK293 EBNA cells expressing human D3; 0.5 nM [3H]-spiperone
Procedure, shortened: as §1

[1] = membranes of HEK293 EBNA cells expressing human 5-HT2A, 1.1 nM [3H]-ketanserin

Sequence of human 5-HT2A receptor (P28223 whole entry): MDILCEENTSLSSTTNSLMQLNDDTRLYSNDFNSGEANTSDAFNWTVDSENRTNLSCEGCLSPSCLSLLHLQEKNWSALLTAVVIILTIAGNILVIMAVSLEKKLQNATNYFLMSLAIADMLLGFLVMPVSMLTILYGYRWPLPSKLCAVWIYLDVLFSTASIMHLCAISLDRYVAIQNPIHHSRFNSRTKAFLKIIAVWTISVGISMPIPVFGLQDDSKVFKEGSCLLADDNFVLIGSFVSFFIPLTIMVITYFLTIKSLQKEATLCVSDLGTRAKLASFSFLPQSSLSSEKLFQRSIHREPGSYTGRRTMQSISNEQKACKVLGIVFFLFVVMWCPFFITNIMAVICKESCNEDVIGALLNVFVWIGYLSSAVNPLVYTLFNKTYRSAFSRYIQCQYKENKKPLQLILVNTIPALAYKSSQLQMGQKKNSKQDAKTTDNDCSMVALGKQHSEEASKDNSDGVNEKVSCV
Sequence of human D2 receptor (P14416 whole entry): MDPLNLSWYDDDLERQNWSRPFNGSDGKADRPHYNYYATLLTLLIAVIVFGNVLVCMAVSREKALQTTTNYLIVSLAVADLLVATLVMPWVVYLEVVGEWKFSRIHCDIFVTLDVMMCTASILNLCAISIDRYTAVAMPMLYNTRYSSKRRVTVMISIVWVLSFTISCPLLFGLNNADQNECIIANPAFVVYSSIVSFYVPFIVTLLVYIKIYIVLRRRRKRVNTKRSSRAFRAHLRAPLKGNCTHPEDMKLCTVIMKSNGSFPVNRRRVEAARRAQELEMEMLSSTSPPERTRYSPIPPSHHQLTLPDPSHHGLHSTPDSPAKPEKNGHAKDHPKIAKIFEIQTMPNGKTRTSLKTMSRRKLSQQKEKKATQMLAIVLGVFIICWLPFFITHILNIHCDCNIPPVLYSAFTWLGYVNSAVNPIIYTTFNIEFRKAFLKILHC
Sequence of human D3 receptor (P35462 whole entry): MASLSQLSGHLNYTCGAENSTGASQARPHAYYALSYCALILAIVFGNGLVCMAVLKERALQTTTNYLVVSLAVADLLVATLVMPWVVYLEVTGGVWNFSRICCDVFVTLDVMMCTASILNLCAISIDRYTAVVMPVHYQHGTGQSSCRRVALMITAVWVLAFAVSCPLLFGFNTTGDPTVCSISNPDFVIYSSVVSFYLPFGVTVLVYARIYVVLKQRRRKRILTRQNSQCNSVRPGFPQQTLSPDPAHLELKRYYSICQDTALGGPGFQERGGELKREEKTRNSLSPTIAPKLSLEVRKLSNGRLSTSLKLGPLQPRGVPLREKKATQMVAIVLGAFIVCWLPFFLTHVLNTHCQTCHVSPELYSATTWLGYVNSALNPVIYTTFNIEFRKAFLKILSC

SMILES	Ki (human 5-HT2A receptor) [nM]	Ki (human D2 receptor) [nM]	melting point [°C]	Ki (human D3 receptor) [nM]	Ki (human 5-HT2A receptor; [1]) [nM]
CC(C)(C)C(=O)N[C@H]1CC[C@H](CCN2CCN(c3nccc4c3CCO4)CC2)CC1 [Example 70, trans-N-(4-{2-[4-(2,3-Dihydro-furo[3,2-c]pyridin-4-yl)-piperazin-1-yl]-ethyl}-cyclohexyl)-2,2-dimethyl-propionamide]	9.4	524	185	59.2	–
CC(C)CC(=O)N[C@H]1CC[C@H](CCN2CCN(c3nccc4c3CCO4)CC2)CC1 [Example 71, trans-N-(4-{2-[4-(2,3-Dihydro-furo[3,2-c]pyridin-4-yl)-piperazin-1-yl]-ethyl}-cyclohexyl)-3-methyl-butyramide]	–	655	202.5	10.9	15.7
CC(C)(C)CC(=O)N[C@H]1CC[C@H](CCN2CCN(c3nccc4c3CCO4)CC2)CC1 [Example 72, trans-N-(4-{2-[4-(2,3-Dihydro-furo[3,2-c]pyridin-4-yl)-piperazin-1-yl]-ethyl}-cyclohexyl)-3,3-dimethyl-butyramide]	–	444	192.5	17	16.2
O=C(CC1CCC1)N[C@H]1CC[C@H](CCN2CCN(c3nccc4c3CCO4)CC2)CC1 [Example 73, trans-2-Cyclobutyl-N-(4-{2-[4-(2,3-dihydro-furo[3,2-c]pyridin-4-yl)-piperazin-1-yl]-ethyl}-cyclohexyl)-acetamide]	–	603	193	8.92	13.3
O=C(N[C@H]1CC[C@H](CCN2CCN(c3nccc4c3CCO4)CC2)CC1)C1CC1(F)F (stereo partly drawn) [Example 74, trans-2,2-Difluoro-cyclopropanecarboxylic acid (4-{2-[4-(2,3-dihydro-furo[3,2-c]pyridin-4-yl)-piperazin-1-yl]-ethyl}-cyclohexyl)-amide]	–	438	184.5	23.8	17.3
CC(C)C(=O)N[C@H]1CC[C@H](CCN2CCN(c3nccc4c3CCO4)CC2)CC1 [Example 75, trans-N-(4-{2-[4-(2,3-Dihydro-furo[3,2-c]pyridin-4-yl)-piperazin-1-yl]-ethyl}-cyclohexyl)-isobutyramide]	10.2	705	219	16.6	–
O=C(CC1COC1)N[C@H]1CC[C@H](CCN2CCN(c3nccc4c3CCO4)CC2)CC1 [Example 77, trans-N-(4-{2-[4-(2,3-Dihydro-furo[3,2-c]pyridin-4-yl)-piperazin-1-yl]-ethyl}-cyclohexyl)-2-oxetan-3-yl-acetamide]	–	755	195	12.1	11
CN(C)C(=O)N[C@H]1CC[C@H](CCN2CCN(c3nccc4c3CCO4)CC2)CC1 [Example 78, trans-3-(4-{2-[4-(2,3-Dihydro-furo[3,2-c]pyridin-4-yl)-piperazin-1-yl]-ethyl}-cyclohexyl)-1,1-dimethyl-urea]	28.7	322	260	92.8	–
O=C(N[C@H]1CC[C@H](CCN2CCN(c3nccc4c3CCO4)CC2)CC1)C(F)(F)F [Example 79, trans-N-(4-{2-[4-(2,3-Dihydro-furo[3,2-c]pyridin-4-yl)-piperazin-1-yl]-ethyl}-cyclohexyl)-2,2,2-trifluoro-acetamide]	–	773	213	47.3	19.2
CC(C)=CC(=O)N[C@H]1CC[C@H](CCN2CCN(c3nccc4c3CCO4)CC2)CC1 [Example 80, 3-Methyl-but-2-enoic acid trans-(4-{2-[4-(2,3-dihydro-furo[3,2-c]pyridin-4-yl)-piperazin-1-yl]-ethyl}-cyclohexyl)-amide]	–	198	164.5	15.4	16.2
C/C=C/CC(=O)N[C@H]1CC[C@H](CCN2CCN(c3nccc4c3CCO4)CC2)CC1 [Example 81, (E)-Pent-3-enoic acid trans-(4-{2-[4-(2,3-dihydro-furo[3,2-c]pyridin-4-yl)-piperazin-1-yl]-ethyl}-cyclohexyl)-amide]	–	945	175.5	12.9	22.8
CC#CC(=O)N[C@H]1CC[C@H](CCN2CCN(c3nccc4c3CCO4)CC2)CC1 [Example 82, But-2-ynoic acid trans-(4-{2-[4-(2,3-dihydro-furo[3,2-c]pyridin-4-yl)-piperazin-1-yl]-ethyl}-cyclohexyl)-amide]	–	426	193	17.2	12.2
O=CN[C@H]1CC[C@H](CCN2CCN(c3nccc4c3CCO4)CC2)CC1 [Example 83, trans-N-(4-{2-[4-(2,3-Dihydro-furo[3,2-c]pyridin-4-yl)-piperazin-1-yl]-ethyl}-cyclohexyl)-formamide]	–	837	170.5	28	23.5
Cc1cc(CC(=O)N[C@H]2CC[C@H](CCN3CCN(c4nccc5c4CCO5)CC3)CC2)on1 [Example 84, trans-N-(4-{2-[4-(2,3-Dihydro-furo[3,2-c]pyridin-4-yl)-piperazin-1-yl]-ethyl}-cyclohexyl)-2-(3-methyl-isoxazol-5-yl)-acetamide]	–	1300	172.5	4.01	15.2
Cc1cc(C(=O)N[C@H]2CC[C@H](CCN3CCN(c4nccc5c4CCO5)CC3)CC2)on1 [Example 85, 3-Methyl-isoxazole-5-carboxylic acid trans-(4-{2-[4-(2,3-dihydro-furo[3,2-c]pyridin-4-yl)-piperazin-1-yl]-ethyl}-cyclohexyl)-amide]	15.7	397	218	31.1	–
CN(C)C(=O)CCC(=O)N[C@H]1CC[C@H](CCN2CCN(c3nccc4c3CCO4)CC2)CC1 [Example 86, trans-N-(4-{2-[4-(2,3-Dihydro-furo[3,2-c]pyridin-4-yl)-piperazin-1-yl]-ethyl}-cyclohexyl)-N′,N′-dimethyl-succinamide]	–	2560	188	37.6	23.9
CC(C)(O)CC(=O)N[C@H]1CC[C@H](CCN2CCN(c3nccc4c3CCO4)CC2)CC1 [Example 87, trans-N-(4-{2-[4-(2,3-Dihydro-furo[3,2-c]pyridin-4-yl)-piperazin-1-yl]-ethyl}-cyclohexyl)-3-hydroxy-3-methyl-butyramide]	–	1000	208	21.6	25
O=C(C[C@@H](O)C(F)(F)F)N[C@H]1CC[C@H](CCN2CCN(c3nccc4c3CCO4)CC2)CC1 [Example 88, trans-(R)—N-(4-{2-[4-(2,3-Dihydro-furo[3,2-c]pyridin-4-yl)-piperazin-1-yl]-ethyl}-cyclohexyl)-4,4,4-trifluoro-3-hydroxy-butyramide]	33.1	732	207	19.7	–
CC[C@H](O)CC(=O)N[C@H]1CC[C@H](CCN2CCN(c3nccc4c3CCO4)CC2)CC1 [Example 89, (S)-3-Hydroxy-pentanoic acid trans-(4-{2-[4-(2,3-dihydro-furo[3,2-c]pyridin-4-yl)-piperazin-1-yl]-ethyl}-cyclohexyl)-amide]	30	887	158	20	–
CO[C@H]1CC[C@H](CC(=O)N[C@H]2CC[C@H](CCN3CCN(c4nccc5c4CCO5)CC3)CC2)C1 [Example 90, trans-N-(4-{2-[4-(2,3-Dihydro-furo[3,2-c]pyridin-4-yl)-piperazin-1-yl]-ethyl}-cyclohexyl)-2-((1S,3S)-3-methoxy-cyclopentyl)-acetamide]	–	1290	241	19.4	22.4
CCCC(=O)N[C@H]1CC[C@H](CCN2CCN(c3nccc4c3CCO4)CC2)CC1 [Example 92, trans-N-(4-{2-[4-(2,3-Dihydro-furo[3,2-c]pyridin-4-yl)-piperazin-1-yl]-ethyl}-cyclohexyl)-butyramide]	–	828	191	15.4	23.1
CC(C)CCC(=O)N[C@H]1CC[C@H](CCN2CCN(c3nccc4c3CCO4)CC2)CC1 [Example 93, 4-Methyl-pentanoic acid trans-(4-{2-[4-(2,3-dihydro-furo[3,2-c]pyridin-4-yl)-piperazin-1-yl]-ethyl}-cyclohexyl)-amide]	–	1280	182.5	22.7	24.6
CCCCC(=O)N[C@H]1CC[C@H](CCN2CCN(c3nccc4c3CCO4)CC2)CC1 [Example 94, Pentanoic acid trans-(4-{2-[4-(2,3-dihydro-furo[3,2-c]pyridin-4-yl)-piperazin-1-yl]-ethyl}-cyclohexyl)-amide]	–	1140	180.5	19.2	24.7
O=C(CCC(F)(F)F)N[C@H]1CC[C@H](CCN2CCN(c3nccc4c3CCO4)CC2)CC1 [Example 95, trans-N-(4-{2-[4-(2,3-Dihydro-furo[3,2-c]pyridin-4-yl)-piperazin-1-yl]-ethyl}-cyclohexyl)-4,4,4-trifluoro-butyramide]	29.6	1250	195.5	20	–
